# Data published in PubChem BioAssay AID330 (DTP/NCI, 2004).
# Several values for one entry are separate records, joined by “and”; a condition that tells them apart may be missing. Equal values may be shown once. Toxic doses and inconclusive results are not listed. Square brackets hold non-standard residues; d marks the D form. Peptide text beside a SMILES is read from it. Hpg = N[CH](C(=O)O)c1ccc(O)cc1
# System: P388 leukemia ip, CD2F1 mice, survival T/C
# Experiment: NCI In Vivo Anticancer Drug Screen. Data for tumor model P388 Leukemia (intraperitoneal) in CD2F1 (CDF1) mice
# Settings: endpoint: median survival time, higher = longer survival
# Method in brief: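 Mice carrying the transplanted tumor received test compound or vehicle. Survival was recorded in each group, and the value is the treated-group measurement divided by that of the vehicle-treated control group.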
# [1] = dose: 12.5 mg/kg/injection, schedule: Q01DX009 (ip), vehicle: saline with Tween-80
# [2] = dose: 25.0 mg/kg/injection, schedule: Q01DX009 (ip), vehicle: saline with Tween-80
# [3] = dose: 100.0 mg/kg/injection, schedule: Q01DX009 (ip), vehicle: saline
# [4] = dose: 200.0 mg/kg/injection, schedule: Q01DX009 (ip), vehicle: saline
# [5] = dose: 50.0 mg/kg/injection, schedule: Q01DX009 (ip), vehicle: saline
# [6] = dose: 60.0 mg/kg/injection, schedule: Q01DX005 (ip), vehicle: saline with Tween-80
# [7] = dose: 120.0 mg/kg/injection, schedule: Q01DX005 (ip), vehicle: saline with Tween-80
# [8] = dose: 240.0 mg/kg/injection, schedule: Q01DX005 (ip), vehicle: saline with Tween-80
# [9] = dose: 50.0 mg/kg/injection, schedule: Q01DX005 (ip), vehicle: Klucel (hydroxypropylcellulose) (HPC)
# [10] = dose: 100.0 mg/kg/injection, schedule: Q01DX005 (ip), vehicle: Klucel (hydroxypropylcellulose) (HPC)
# [11] = dose: 200.0 mg/kg/injection, schedule: Q01DX005 (ip), vehicle: Klucel (hydroxypropylcellulose) (HPC)
# [12] = dose: 50.0 mg/kg/injection, schedule: Q01DX009 (ip), vehicle: saline with Tween-80
# [13] = dose: 100.0 mg/kg/injection, schedule: Q01DX009 (ip), vehicle: saline with Tween-80
# [14] = dose: 200.0 mg/kg/injection, schedule: Q01DX009 (ip), vehicle: saline with Tween-80
# [15] = dose: 0.5 mg/kg/injection, schedule: Q01DX005 (ip), vehicle: saline + alcohol
# [16] = dose: 1.0 mg/kg/injection, schedule: Q01DX005 (ip), vehicle: saline + alcohol
compound,measurement,setting,value
CCOC1(C)OC2OC(COC(C)=O)C(OC(C)=O)C(OC(C)=O)C2O1 (stereo unspecified),T/C,"dose: 4.0 mg/kg/injection, schedule: Q01DX009 (ip), vehicle: other",95 % of control
same,T/C,"dose: 8.0 mg/kg/injection, schedule: Q01DX009 (ip), vehicle: other",99 % of control
same,T/C,"dose: 16.0 mg/kg/injection, schedule: Q01DX009 (ip), vehicle: other",102 % of control
same,T/C,"dose: 32.0 mg/kg/injection, schedule: Q01DX009 (ip), vehicle: other",104 % of control
same,T/C,"dose: 50.0 mg/kg/injection, schedule: Q01DX009 (ip), vehicle: other",95 % of control
same,T/C,"dose: 64.0 mg/kg/injection, schedule: Q01DX009 (ip), vehicle: other",98 % of control
same,T/C,"dose: 100.0 mg/kg/injection, schedule: Q01DX009 (ip), vehicle: other",100 % of control
same,T/C,"dose: 200.0 mg/kg/injection, schedule: Q01DX009 (ip), vehicle: other",104 % of control
same,T/C,"dose: 400.0 mg/kg/injection, schedule: Q01DX009 (ip), vehicle: other",95 % of control
O=C1c2ccccc2C(=O)N1Cc1ccccc1[N+](=O)[O-],T/C,"dose: 6.25 mg/kg/injection, schedule: Q01DX009 (ip), vehicle: saline with Tween-80",95 % of control
same,T/C,[1],88 % of control
same,T/C,[2],89 % of control
same,T/C,[3],98 % of control
same,T/C,[4],102 % of control
S=P(C1CCCCC1)(C1CCCCC1)C(c1cccnc1)N1CCCC1 (stereo unspecified),T/C,[5],104 % of control
same,T/C,[3],94 % of control
same,T/C,[4],87 % of control
C=C(C)CC1(CC)C(=O)NC(=S)NC1=O,T/C,"dose: 50.0 mg/kg/injection, schedule: Q04DX003 (ip), vehicle: saline with Tween-80",104 % of control
same,T/C,"dose: 100.0 mg/kg/injection, schedule: Q04DX003 (ip), vehicle: saline with Tween-80",104 % of control
same,T/C,"dose: 200.0 mg/kg/injection, schedule: Q04DX003 (ip), vehicle: saline with Tween-80",86 % of control
COc1ccc2c(OC)c(CC(=O)C(C)(C)O)c(=O)n(C)c2c1OC,T/C,"dose: 19.0 mg/kg/injection, schedule: Q01DX005 (ip), vehicle: Klucel (hydroxypropylcellulose) (HPC)",96 % of control
same,T/C,"dose: 38.0 mg/kg/injection, schedule: Q01DX005 (ip), vehicle: Klucel (hydroxypropylcellulose) (HPC)",92 % of control
same,T/C,"dose: 76.0 mg/kg/injection, schedule: Q01DX005 (ip), vehicle: Klucel (hydroxypropylcellulose) (HPC)",88 % of control
same,T/C,"dose: 152.0 mg/kg/injection, schedule: Q01DX005 (ip), vehicle: Klucel (hydroxypropylcellulose) (HPC)",91 % of control
COc1ccc(/C=C/Cc2cc3c(cc2O)OCO3)cc1,T/C,[6],104 % of control
same,T/C,[7],101 % of control
same,T/C,[8],101 % of control
CCCCN(CCCC)C(=N)OC1CCCCC1,T/C,"dose: 12.5 mg/kg/injection, schedule: Q01DX005 (ip), vehicle: saline with Tween-80",102 % of control
same,T/C,"dose: 25.0 mg/kg/injection, schedule: Q01DX005 (ip), vehicle: saline with Tween-80",100 % of control
same,T/C,"dose: 50.0 mg/kg/injection, schedule: Q01DX005 (ip), vehicle: saline with Tween-80",100 % of control
COc1cc(-c2nn(CN3CCOCC3)c(=S)n2C)cc(OC)c1OC,T/C,[9],103 % of control
same,T/C,[10],103 % of control
same,T/C,[11],100 % of control
CC(C)CC(N)C(=O)NC(C(N)=O)c1ccc(O)cc1 (stereo unspecified) (H-Leu-[Hpg]-NH2; configuration not given here),T/C,[5],101 % of control
same,T/C,[3],92 % of control
same,T/C,[4],88 % of control
Cc1cc(NC(=S)SCc2ccc3c(c2)OCO3)c([N+](=O)[O-])cc1C,T/C,"dose: 50.0 mg/kg/injection, schedule: Q01DX009 (ip), vehicle: suspension in saline",98 % of control
same,T/C,"dose: 100.0 mg/kg/injection, schedule: Q01DX009 (ip), vehicle: suspension in saline",100 % of control
same,T/C,"dose: 200.0 mg/kg/injection, schedule: Q01DX009 (ip), vehicle: suspension in saline",108 % of control
Clc1ccccc1OCc1cnc[nH]1,T/C,"dose: 25.0 mg/kg/injection, schedule: Q01DX009 (ip), vehicle: saline",102 % of control
same,T/C,[5],111 % of control
same,T/C,[3],117 % of control
CC(=O)Oc1ccc(/C(C)=N/NC(=O)C(C)SC(C)C(=O)N/N=C(\C)c2ccc(OC(C)=O)cc2)cc1 (stereo unspecified),T/C,[9],108 % of control
same,T/C,[10],105 % of control
same,T/C,[11],106 % of control
CC(=O)OCC1(C)NC(=O)c2ccccc2O1 (stereo unspecified),T/C,[12],109 % of control (2×) and 120 % of control
same,T/C,[13],114 % of control and 118 % of control
same,T/C,[14],100 % of control
c1ccc(C(c2ccccc2)(c2cccs2)N2CCCCC2)cc1,T/C,"dose: 100.0 mg/kg/injection, schedule: Q01DX001 (ip), vehicle: Klucel (hydroxypropylcellulose) (HPC)",99 % of control
same,T/C,"dose: 200.0 mg/kg/injection, schedule: Q01DX001 (ip), vehicle: Klucel (hydroxypropylcellulose) (HPC)",94 % of control
same,T/C,"dose: 400.0 mg/kg/injection, schedule: Q01DX001 (ip), vehicle: Klucel (hydroxypropylcellulose) (HPC)",96 % of control
CN(C)c1cc(-c2ccccc2)oc(=O)c1Cl,T/C,[12],99 % of control
same,T/C,[13],100 % of control
CCC(=O)NN(Cn1c(=S)sc2ccccc21)Cn1c(=S)sc2ccccc21,T/C,[9],99 % of control
same,T/C,[10],89 % of control
same,T/C,[11],93 % of control
CC(=O)OC1CC2C(C)(C)OC3CC(=O)OCC32C2CCC3(C)C(=CCC3c3ccoc3)C12C (stereo unspecified),T/C,[15],108 % of control
same,T/C,[16],98 % of control
same,T/C,"dose: 2.0 mg/kg/injection, schedule: Q01DX005 (ip), vehicle: saline + alcohol",106 % of control
same,T/C,"dose: 4.0 mg/kg/injection, schedule: Q01DX005 (ip), vehicle: saline + alcohol",111 % of control
same,T/C,"dose: 8.0 mg/kg/injection, schedule: Q01DX005 (ip), vehicle: saline + alcohol",108 % of control
[B-][N+](C)(C)Cc1ccccc1,T/C,[1],90 % of control
same,T/C,[2],90 % of control
same,T/C,[12],109 % of control
CCCC(=O)Nc1ncc([N+](=O)[O-])s1,T/C,[12],95 % of control
same,T/C,[13],100 % of control
same,T/C,[14],90 % of control
CCCCCCC[n+]1cccc(S(=O)(=O)N2CCOCC2)c1,T/C,[1],98 % of control
same,T/C,[2],98 % of control
same,T/C,[12],98 % of control
NC(=O)CCn1cnc2c(N)ncnc21,T/C,"dose: 25.0 mg/kg/injection, schedule: Q04DX003 (ip), vehicle: saline",100 % of control
same,T/C,"dose: 50.0 mg/kg/injection, schedule: Q04DX003 (ip), vehicle: saline",100 % of control
same,T/C,"dose: 100.0 mg/kg/injection, schedule: Q04DX003 (ip), vehicle: saline",99 % of control
CC1=CC(=O)C(O)C2(C)C1CC1OC(=O)C(OC(=O)/C=C(\C)C(C)C)C3C(C)C(O)C4(O)OCC13C42 (stereo unspecified),T/C,"dose: 0.25 mg/kg/injection, schedule: Q01DX005 (ip), vehicle: saline + alcohol",113 % of control
same,T/C,[15],121 % of control
same,T/C,[16],121 % of control
CCCC(=O)Nc1cc2c3c(c1)CCCN3CCC2,T/C,[1],100 % of control
same,T/C,[2],95 % of control
COc1cc(C2C3=C(CC(C)(C)CC3=O)N(CC(=O)O)C3=C2C(=O)CC(C)(C)C3)ccc1O,T/C,[5],95 % of control
same,T/C,[3],102 % of control
same,T/C,[4],113 % of control
CCOC(=O)C(N)Cc1ccc(N(CCCl)CCCl)cc1 (stereo unspecified),T/C,"dose: 0.5 mg/kg/injection, schedule: Q04DX003 (ip), vehicle: saline",180 % of control
same,T/C,"dose: 1.0 mg/kg/injection, schedule: Q04DX003 (ip), vehicle: saline",195 % of control
same,T/C,"dose: 2.0 mg/kg/injection, schedule: Q04DX003 (ip), vehicle: saline",250 % of control
same,T/C,"dose: 3.13 mg/kg/injection, schedule: Q01DX009 (ip), vehicle: saline",272 % of control
same,T/C,"dose: 6.25 mg/kg/injection, schedule: Q01DX009 (ip), vehicle: saline",100 % of control
same,T/C,"dose: 6.25 mg/kg/injection, schedule: Q04DX003 (ip), vehicle: saline",272 % of control
same,T/C,"dose: 12.5 mg/kg/injection, schedule: Q04DX003 (ip), vehicle: saline",240 % of control
same,T/C,"dose: 63.0 micrograms/kg/injection, schedule: Q04DX003 (ip), vehicle: saline",113 % of control
same,T/C,"dose: 125.0 micrograms/kg/injection, schedule: Q04DX003 (ip), vehicle: saline",113 % of control
CC1(C)NC(=O)c2cccnc2S1,T/C,[6],89 % of control
same,T/C,[7],97 % of control
same,T/C,[8],99 % of control
CCOC1CN(C(=O)ON)N1C(=O)ON (stereo unspecified),T/C,[5],109 % of control
same,T/C,[3],107 % of control
same,T/C,[4],89 % of control
